The values below come from patent US4500526A, “Cephalosporin derivatives” (Bristol-Myers Company, priority 1983, dated 1985).

By AUC is commonly meant concentration integrated over time. The low end stands for less exposure, the high end for more exposure. As a reminder, the half-life is the time in which the quantity being followed falls by half.

In brackets after ≈: the same amount, converted by molar mass. Where only a bound is given, the exact number is not on record here.

The subject of data set [1] is H. influenzae (7) (ampicillin sensitive). In words: In vitro activity against fastidious bacteria, two-fold serial agar dilution. The data set is classed as cell-based. Conditions: Haemophilus influenzae, GC agar, 7 strains, read-out: Geometric Mean of MIC. As to the method: The in vitro activity of some of the preferred compounds against 30 strains of fastidious bacteria was determined by the two-fold serial agar dilution method in Gonococcus agar (GC agar), and the results are shown in Table 3.
For orientation: In agar dilution, organisms are placed on agar that contains the substance at set levels.

For data set [2], the system named is Ps. aeruginosa (6 strains). The data set is described as follows: MIC, two-fold serial agar dilution, group (G-)-III. It is filed as cell-based. Conditions: Pseudomonas aeruginosa; (G-)-III, 6 strains, Mueller-Hinton agar; read-out: Geometric Mean of MIC. As to the method:
In the primary evaluation of the compounds of this invention, the Minimum Inhibitory Concentrations (MIC's) of the compounds were determined by the two-fold serial agar dilution method in Mueller-Hinton agar against 32 strains of test organisms in six groups. The sample weights of the test compounds were adjusted according to the purity of each compound, so as to give a more accurate measure of the MIC's.
(G-)III: Ps. aeruginosa (6 strains)

Data set [3] has as its system Penicillinsensitive S. aureus (5 strains). The data set is described as follows: MIC, two-fold serial agar dilution, group (G+)-Ia. The data set is classed as cell-based. Conditions: Staphylococcus aureus; (G+)-Ia, 5 strains, Mueller-Hinton agar; read-out: Geometric Mean of MIC. Summed up:
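Two-fold serial agar dilution in Mueller-Hinton agar. Compound weights corrected for purity. Group comprises 5 penicillin-sensitive S. aureus strains.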

The subject of the next data set is S. aureus BX-1633. In words: Median protective dose in infected mice. It is filed as in vivo. Conditions: Staphylococcus aureus, BX1633, im, immediately after intraperitoneal challenge, read-out: PD50. As to the method:
(§1) The median protective dose (PD50) of some of the preferred compounds against various microorganisms was determined in mice by intramuscular administration of the test compound immediately after an intraperitoneal bacterial challenge.

The next data set concerns E. coli Juhl. In words: Median protective dose in infected mice. Conditions: Escherichia coli, im, immediately after intraperitoneal challenge, read-out: PD50. The data set is classed as in vivo. As to the method: as §1
The next data set concerns P. aeruginosa A9843. The data set is described as follows: Median protective dose in infected mice. The data set is classed as in vivo. Conditions: Pseudomonas aeruginosa, im, immediately after intraperitoneal challenge, read-out: PD50. The method, then:
as §1

The test system of a further data set is S. aureus Smith. The data set is described as follows: Median protective dose in infected mice. It is filed as in vivo. Conditions: Staphylococcus aureus, im, immediately after intraperitoneal challenge, read-out: PD50. The method, then: as §1
Another data set relates to P. aeruginosa A21509. The data set is described as follows: Median protective dose in infected mice. It is filed as in vivo. Conditions: Pseudomonas aeruginosa, im, immediately after intraperitoneal challenge, read-out: PD50. As to the method: as §1
A further data set has as its system S. pyogenes A20201. In words: Median protective dose in infected mice. Conditions: Streptococcus pyogenes, im, immediately after intraperitoneal challenge, read-out: PD50. It is filed as in vivo. The method, then: as §1
Data set [4] is described as follows: Mouse blood levels after single intramuscular injection. Conditions: in vivo, im, 20 mg/kg. It is filed as in vivo, mice. The essentials:
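Mice received a single intramuscular dose of 20 mg/kg in 0.1M phosphate buffer, pH 7. Orbital sinus blood was sampled over time and bioassayed on Nutrient Agar (pH 6.6) with E. coli Ess-22-31; t1/2 and AUC were derived from the blood levels.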

As for `CC(C)(O/N=C(\C(=O)NC1C(=O)N2C(C(=O)[O-])=C(C[n+]3ccc4scnc4c3)CS[C@H]12)c1csc(N)n1)C(=O)O` (stereo partly drawn) [Id, 7-[(Z)-2-(2-Aminothiazol-4-yl)-2-(2-carboxyprop-2-oxyimino)-acetamido]-3-{(5-thiazolo[4,5-c]pyridinio)methyl}-3-cephem-4-carboxylate], the MIC in data set [1] is 0.1 µg/mL (≈ 0.166 µM). Also, the MIC in data set [2] stood at 1.4 µg/mL (≈ 2.32 µM). Also, the MIC in data set [3] was 4.4 µg/mL (≈ 7.29 µM). Moreover, the ED50 in the data set on S. aureus BX-1633 was 21 mg/kg. Besides, the ED50 with E. coli Juhl came to 0.082 mg/kg. For the same molecule, the ED50 in the data set on P. aeruginosa A9843 is 4.3 mg/kg. The ED50 in the data set on S. aureus Smith turned out to be 7.2 mg/kg. The ED50 in the data set on P. aeruginosa A21509 amounted to 5 mg/kg. The ED50 with S. pyogenes A20201 was 0.23 mg/kg. Moreover, in data set [4], the AUC was determined as 9500 ng·h/mL, the concentration at 10 min amounted to 16000 ng/mL, the concentration at 20 min is 14000 ng/mL and the concentration at 0.5 h turned out to be 11000 ng/mL. Also, in data set [4], the concentration at 40 min was 6100 ng/mL, the concentration at 50 min was 3900 ng/mL, the concentration at 1 h is 2500 ng/mL and the concentration at 1.5 h was 720 ng/mL. In data set [4], the concentration at 2 h was less than 200 ng/mL and the half-life was determined as 16 min.
In the case of `CO/N=C(\C(=O)NC1C(=O)N2C(C(=O)[O-])=C(C[n+]3ccc4scnc4c3)CS[C@H]12)c1csc(N)n1` (stereo partly drawn) [Ia, 7-[(Z)-2-(2-Aminothiazol-4-yl)-2-methoxyiminoacetamido]-3-{(5-thiazolo[4,5-c]pyridinio)methyl}-3-cephem-4-carboxylate], in [2], the MIC is 2.6 µg/mL (≈ 4.89 µM). Further, the MIC in data set [3] came out at 0.42 µg/mL (≈ 0.79 µM). The ED50 with S. aureus BX-1633 amounted to 0.75 mg/kg. Also, the ED50 with E. coli Juhl was determined as 0.012 mg/kg. Also, the ED50 in the data set with P. aeruginosa A9843 came to 7.2 mg/kg. Moreover, the ED50 in the data set on S. aureus Smith came out at 0.45 mg/kg. The ED50 in the data set with P. aeruginosa A21509 is 6.25 mg/kg. In addition, in data set [4], the AUC stood at 15000 ng·h/mL, the concentration at 10 min was determined as 20000 ng/mL, the concentration at 20 min is 15000 ng/mL and the concentration at 0.5 h was 11000 ng/mL. In data set [4], this molecule yielded a concentration at 40 min of 8600 ng/mL, a concentration at 50 min of 6900 ng/mL, a concentration at 1 h of 6500 ng/mL and a concentration at 1.5 h of 3100 ng/mL. In data set [4], this molecule had a concentration at 2 h of 2100 ng/mL and a half-life of 35 min.
